Assay results taken from patent US20240199587A1, “HETEROCYCLIC COMPOUNDS” (Hoffmann-La Roche Inc., priority 2021, published 2024).

Biological target: T1, MAGL (Homo sapiens, UniProt Q99685)
T1 sequence (Q99685 1-303): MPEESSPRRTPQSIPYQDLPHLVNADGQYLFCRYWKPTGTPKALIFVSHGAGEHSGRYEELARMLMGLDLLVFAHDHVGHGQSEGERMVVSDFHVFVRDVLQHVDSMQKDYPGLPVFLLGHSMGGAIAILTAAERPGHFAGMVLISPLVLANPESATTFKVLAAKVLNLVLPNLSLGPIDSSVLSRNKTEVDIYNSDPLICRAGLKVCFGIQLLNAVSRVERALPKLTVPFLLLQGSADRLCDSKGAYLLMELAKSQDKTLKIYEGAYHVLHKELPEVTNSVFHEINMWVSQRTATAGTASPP
Assay: 2-AG assay (MAGL inhibitory activity, hydrolysis of 2-arachidonoylglycerol to arachidonic acid followed by mass spectrometry)
Format: biochemical
Conditions: 8 μM 2-arachidonoylglycerol, 15 min pre-incubation, 30 min incubation at RT, RapidFire MS readout
How it was run: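 Human MAGL ([…] final) pre-incubated 15 min at RT with compound in 50 mM TRIS, 1 mM EDTA, 0.01% Tween-20, 2.5% DMSO; 8 μM 2-AG then added for 30 min at RT. Acetonitrile quench with d8-arachidonic acid; arachidonic acid measured by RapidFire SPE–MS/MS, activity from arachidonic acid/d8 ratio.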

| SMILES | IC50 |
| --- | --- |
| Cc1cc(C2CC2)n(C23CC(C4CN(C(=O)N5CC6(CC(n7cnc(C8(O)CC8)n7)C6)C5)C4)(C2)C3)n1 [Example 355, [3-[3-(5-cyclopropyl-3-methyl-pyrazol-1-yl)-1-bicyclo[1.1.1]pentanyl]azetidin-1-yl]-[6-[3-(1-hydroxycyclopropyl)-1,2,4-triazol-1-yl]-2-azaspiro[3.3]heptan-2-yl]methanone] | 134 nM |
| Cc1cc(C)n(C23CC(C4CN(C(=O)N5CC6(CC(n7cnc(C8(O)CC8)n7)C6)C5)C4)(C2)C3)n1 [Example 356, [3-[3-(3,5-dimethylpyrazol-1-yl)-1-bicyclo[1.1.1]pentanyl]azetidin-1-yl]-[6-[3-(1-hydroxycyclopropyl)-1,2,4-triazol-1-yl]-2-azaspiro[3.3]heptan-2-yl]methanone] | 1090 nM |
| O=C(N1CC2(CC(Cc3ccc4[nH]ncc4n3)C2)C1)N1CC2(CC(n3cnc(C4CC4)n3)C2)C1 [Example 357, [6-(3-cyclopropyl-1,2,4-triazol-1-yl)-2-azaspiro[3.3]heptan-2-yl]-[6-(1H-pyrazolo[4,3-b]pyridin-5-ylmethyl)-2-azaspiro[3.3]heptan-2-yl]methanone] | 2.01 nM |
| O=C(N1CC2(CC(Cc3ccc(F)cc3F)C2)C1)N1CC2(CC(c3ccc(C(F)(F)F)nc3)C2)C1 [Example 358, [6-[(2,4-difluorophenyl)methyl]-2-azaspiro[3.3]heptan-2-yl]-[6-[6-(trifluoromethyl)-3-pyridyl]-2-azaspiro[3.3]heptan-2-yl]methanone] | 30.6 nM |
| CS(=O)(=O)c1cc(CC2CC3(C2)CN(C(=O)N2CC4(CC(n5cnc(C6(O)CC6)n5)C4)C2)C3)cc(C(F)(F)F)c1 [Example 359, [6-[3-(1-hydroxycyclopropyl)-1,2,4-triazol-1-yl]-2-azaspiro[3.3]heptan-2-yl]-[6-[[3-methylsulfonyl-5-(trifluoromethyl)phenyl]methyl]-2-azaspiro[3.3]heptan-2-yl]methanone] | 1 nM |
| O=C(N1CC2(CC(n3cnc(C4(O)CC4)n3)C2)C1)N1CC2(CC[C@@H](Cc3cccc(S(=O)(=O)C(F)(F)F)c3)C2)C1 [Example 360, [6-[3-(1-hydroxycyclopropyl)-1,2,4-triazol-1-yl]-2-azaspiro[3.3]heptan-2-yl]-[(6S)-6-[[3-(trifluoromethylsulfonyl)phenyl]methyl]-2-azaspiro[3.4]octan-2-yl]methanone] | 0.13 nM |
| O=C(N1CC2(CC(n3cnc(C4(O)CC4)n3)C2)C1)N1CC2(CC[C@H](Cc3cccc(S(=O)(=O)C(F)(F)F)c3)C2)C1 [Example 361, [6-[3-(1-hydroxycyclopropyl)-1,2,4-triazol-1-yl]-2-azaspiro[3.3]heptan-2-yl]-[(6R)-6-[[3-(trifluoromethylsulfonyl)phenyl]methyl]-2-azaspiro[3.4]octan-2-yl]methanone] | 0.21 nM |
| O=C(N1CC2(CC(n3cnc(C4(O)CC4)n3)C2)C1)N1CC2(CC[C@@H](Cc3ccc(S(=O)(=O)C(F)(F)F)cc3)C2)C1 [Example 362, [6-[3-(1-hydroxycyclopropyl)-1,2,4-triazol-1-yl]-2-azaspiro[3.3]heptan-2-yl]-[(6S)-6-[[4-(trifluoromethylsulfonyl)phenyl]methyl]-2-azaspiro[3.4]octan-2-yl]methanone] | 1.73 nM |
| O=C(N1CC2(CC(n3cnc(C4(O)CC4)n3)C2)C1)N1CC2(CC[C@H](Cc3ccc(S(=O)(=O)C(F)(F)F)cc3)C2)C1 [Example 363, [6-[3-(1-hydroxycyclopropyl)-1,2,4-triazol-1-yl]-2-azaspiro[3.3]heptan-2-yl]-[(6R)-6-[[4-(trifluoromethylsulfonyl)phenyl]methyl]-2-azaspiro[3.4]octan-2-yl]methanone] | 1.35 nM |
| O=C(N1CC2(CC(Cc3ccc(S(=O)(=O)C4CC4)cc3)C2)C1)N1CC2(CC(n3cnc(C4(O)CC4)n3)C2)C1 [Example 364, [6-[(4-cyclopropylsulfonylphenyl)methyl]-2-azaspiro[3.3]heptan-2-yl]-[6-[3-(1-hydroxycyclopropyl)-1,2,4-triazol-1-yl]-2-azaspiro[3.3]heptan-2-yl]methanone] | 1.84 nM |
| N#Cc1cc(CC2CC3(C2)CN(C(=O)N2CC4(CC(n5cnc(C6(O)CC6)n5)C4)C2)C3)ccc1C(F)(F)F [Example 365, 5-[[2-[6-[3-(1-hydroxycyclopropyl)-1,2,4-triazol-1-yl]-2-azaspiro[3.3]heptane-2-carbonyl]-2-azaspiro[3.3]heptan-6-yl]methyl]-2-(trifluoromethyl) benzonitrile] | 1.83 nM |
| CS(=O)(=O)c1cc(Cl)ccc1-c1ccc(C2CN(C(=O)N3CC4(CC(c5cncc(F)c5)C4)C3)C2)cc1 [Example 366, [3-[4-(4-chloro-2-methylsulfonyl-phenyl)phenyl]azetidin-1-yl]-[6-(5-fluoro-3-pyridyl)-2-azaspiro[3.3]heptan-2-yl]methanone] | 14.2 nM |
| O=C(N1CC2(CC(Cc3ncc(Cl)cc3F)C2)C1)N1CC2(CC(n3cnc(C4(O)CC4)n3)C2)C1 [Example 367, [6-[(5-chloro-3-fluoro-2-pyridyl)methyl]-2-azaspiro[3.3]heptan-2-yl]-[6-[3-(1-hydroxycyclopropyl)-1,2,4-triazol-1-yl]-2-azaspiro[3.3]heptan-2-yl]methanone] | 2.38 nM |
| N#Cc1ccc(CC2CC3(C2)CN(C(=O)N2CC4(CC(n5cnc(C6(O)CC6)n5)C4)C2)C3)cc1C(F)(F)F [Example 368, 4-[[2-[6-[3-(1-hydroxycyclopropyl)-1,2,4-triazol-1-yl]-2-azaspiro[3.3]heptane-2-carbonyl]-2-azaspiro[3.3]heptan-6-yl]methyl]-2-(trifluoromethyl) benzonitrile] | 1.57 nM |
| O=C(N1CC2(CC(n3cnc(C4(O)CC4)n3)C2)C1)N1CC2(CCN(Cc3ccc(S(=O)(=O)C(F)(F)F)cc3)C2)C1 [Example 369, [6-[3-(1-hydroxycyclopropyl)-1,2,4-triazol-1-yl]-2-azaspiro[3.3]heptan-2-yl]-[7-[[4-(trifluoromethylsulfonyl)phenyl]methyl]-2,7-diazaspiro[3.4]octan-2-yl]methanone] | 49.3 nM |
| N#Cc1cc(CC2CC3(C2)CN(C(=O)N2CC4(CC(n5cnc(C6(O)CC6)n5)C4)C2)C3)cc(C(F)(F)F)c1 [Example 370, 3-[[2-[6-[3-(1-hydroxycyclopropyl)-1,2,4-triazol-1-yl]-2-azaspiro[3.3]heptane-2-carbonyl]-2-azaspiro[3.3]heptan-6-yl]methyl]-5-(trifluoromethyl) benzonitrile] | 0.9 nM |
| CS(=O)(=O)c1cc(Cl)ccc1-c1ccc(C2CN(C(=O)N3CC4(CC(c5ccc(C(F)(F)F)nc5)C4)C3)C2)cc1 [Example 371, [3-[4-(4-chloro-2-methylsulfonyl-phenyl)phenyl]azetidin-1-yl]-[6-[6-(trifluoromethyl)-3-pyridyl]-2-azaspiro[3.3]heptan-2-yl]methanone] | 9.23 nM |
| O=C(N1CC(c2ccc(NCC3(C(F)(F)F)CC3)nc2)C1)N1CC2(CC(n3cnc(C4(O)CC4)n3)C2)C1 [Example 372, [6-[3-(1-hydroxycyclopropyl)-1,2,4-triazol-1-yl]-2-azaspiro[3.3]heptan-2-yl]-[3-[6-[[1-(trifluoromethyl)cyclopropyl]methylamino]-3-pyridyl]azetidin-1-yl]methanone] | 1.12 nM |
| O=C(N1CC(c2ccc(N3CC[C@@H](C(F)(F)F)C3)nc2)C1)N1CC2(CC(n3cnc(C4(O)CC4)n3)C2)C1 [Example 373, [6-[3-(1-hydroxycyclopropyl)-1,2,4-triazol-1-yl]-2-azaspiro[3.3]heptan-2-yl]-[3-[6-[(3R)-3-(trifluoromethyl)pyrrolidin-1-yl]-3-pyridyl]azetidin-1-yl]methanone] | 3.24 nM |
| CS(=N)(=O)c1cccc(CC2CC3(C2)CN(C(=O)N2CC4(CC(n5cnc(C6(O)CC6)n5)C4)C2)C3)c1 (stereo not drawn) [Example 374, [6-[3-(1-hydroxycyclopropyl)-1,2,4-triazol-1-yl]-2-azaspiro[3.3]heptan-2-yl]-[6-[[3-(methylsulfonimidoyl)phenyl]methyl]-2-azaspiro[3.3]heptan-2-yl]methanone] | 52.9 nM |
| CP(C)(=O)c1ccc(CC2CC3(C2)CN(C(=O)N2CC4(CC(n5cnc(C(F)(F)F)n5)C4)C2)C3)cc1 [Example 375, [6-[(4-dimethyl-phosphorylphenyl)methyl]-2-azaspiro[3.3]heptan-2-yl]-[6-[3-(trifluoromethyl)-1,2,4-triazol-1-yl]-2-azaspiro[3.3]heptan-2-yl]methanone] | 12.7 nM |
| CP(C)(=O)c1ccc(CC2CC3(C2)CN(C(=O)N2CC4(CC(n5cnc(C6CC6)n5)C4)C2)C3)cc1 [Example 376, [6-(3-cyclopropyl-1,2,4-triazol-1-yl)-2-azaspiro[3.3]heptan-2-yl]-[6-[(4-dimethyl-phosphorylphenyl)methyl]-2-azaspiro[3.3]heptan-2-yl]methanone] | 4.07 nM |
| CP(C)(=O)c1ccc(CC2CC3(C2)CN(C(=O)N2CC4(CC(n5cnc(C(F)(F)F)n5)C4)C2)C3)nc1 [Example 377, [6-[(5-dimethylphosphoryl-2-pyridyl)methyl]-2-azaspiro[3.3]heptan-2-yl]-[6-[3-(trifluoromethyl)-1,2,4-triazol-1-yl]-2-azaspiro[3.3]heptan-2-yl]methanone] | 392 nM |
| CP(C)(=O)c1ccc(CC2CC3(C2)CN(C(=O)N2CC4(CC(n5cnc(C6CC6)n5)C4)C2)C3)nc1 [Example 378, [6-(3-cyclopropyl-1,2,4-triazol-1-yl)-2-azaspiro[3.3]heptan-2-yl]-[6-[(5-dimethylphosphoryl-2-pyridyl)methyl]-2-azaspiro[3.3]heptan-2-yl]methanone] | 106 nM |
